Assays:
Format in all cases: cell-based
CaV 3.2 = target: T1, CaV 3.2 (Homo sapiens, UniProt O95180); assay: CaV 3.2 calcium assay in stable human CaV3.2-HEK293 cells; settings: control agonist calcium chloride
T1 construct: expressed in transfected cells
Procedure: (§1) Compounds were evaluated for kappa (KOR), mu (MOR), and delta (DOR) opioid receptor agonist and antagonist activity in three individual cell lines overexpressing Gαq16 (CHO-RD-HGA16, Molecular Devices) and the human kappa, mu, and delta opioid receptors, respectively. The day before the assay, cells were plated into 96-well black-walled assay plates at 30,000 cells/well in Ham's F12 supplemented with 10% fetal bovine serum, and 100 units of penicillin and streptomycin. The cells were incubated overnight at 37° C., 5% CO2. Prior to the assay, Calcium 5 dye (Molecular Devices) was reconstituted according to the manufacturer's instructions. The reconstituted dye was diluted 1:40 in pre-warmed (37° C.) assay buffer (1×HBSS, 20 mM HEPES, 2.5 mM probenecid, pH 7.4 at 37° C.). Growth medium was removed and the cells were gently washed with 100 μL of pre-warmed (37° C.) assay buffer. The cells were incubated for 45 minutes at 37° C., 5% CO2 in 200 μL of the diluted Calcium 5 dye. For the agonist screen, a single concentration of each test compound and receptor-specific controls (U69,593, DAMGO, and DPDPE for KOR, MOR, and DOR, respectively) were prepared at 10× the desired final concentration in 1% DMSO/assay buffer, aliquoted into a 96-well polystyrene plate, and warmed to 37° C. After the dye-loading incubation period, pretreatment solution was added to each well (25 μL of 9% DMSO/assay buffer) and, after 15 min, the plate was read with a FlexStation II (Molecular Devices). Calcium-mediated changes in fluorescence were monitored every 1.52 seconds over a 60 second time period, with the FlexStation II adding 50 μL of test compounds at the 19 second time point (excitation at 485 nm, detection at 525 nm). Peak kinetic reduction (SoftMax, Molecular Devices) relative fluorescence units (RFU) were used to calculate % control agonist Emax with the equation % Emax=(test compound RFU/control agonist RFU)×100. For the antagonist screens, the same procedure was followed except that the pretreatment solution consisted of the test compounds (prepared at […] the desired final concentration in 9% DMSO/assay buffer) and the FlexStation added the EC60 concentration (prepared at 10× the desired final concentration in 1% DMSO/assay buffer) of each respective control agonist. Peak RFU were used to calculate % control EC60 inhibition with the equation % inhibition=((EC60 RFU−test compound RFU)/EC60 RFU)×100. When IC50 determinations were made, the same antagonist screen procedure was followed except that cells were pretreated with 8-pt concentration-response curves of the test compounds. Peak RFU were plotted against the log of compound concentration using non-linear regression analysis to generate IC50 values (GraphPad Prism). Each test sample was analyzed in duplicate in two independent experiments.
Compounds were evaluated for activity at CaV 3.2 using stable human CaV3.2-HEK293 cells and the control agonist calcium chloride. The day before the assay, cells were plated into 96-well black-walled assay plates coated with poly-D-lysine in DMEM-F12 supplemented with 10% fetal bovine serum, 100 units penicillin/streptomycin, and 500 μM sodium pyruvate, and incubated at 37° C., 5% CO2 overnight. Prior to the assay, Calcium 5 dye (Molecular Devices) was reconstituted according to the manufacturer instructions. The reconstituted dye was diluted 1:10 in pre-warmed (37° C.) assay buffer (1×HBSS, […], […], pH 7.4 at 37° C.). The cells were incubated for 45 minutes at 37° C., 5% CO2 in 200 μL of the diluted Calcium 5 dye. Compounds were prepared as described above and the plate was read with a FLIPR Tetra (Molecular Devices). Calcium-mediated changes in fluorescence were monitored every 1 second over a 60 second time period, with the Tetra adding 25 μL of appropriate compound at the 10 second time point (excitation at 470-495 nm, detection at 515-575 nm). […]

KOR = KOR (Homo sapiens, UniProt P41145); assay: KOR calcium mobilization agonist/antagonist screen (CHO-RD-HGA16 cells); set-up: host or cells: CHO-RD-HGA16; settings: single concentration; for Emax: CHO-RD-HGA16, agonist screen, control agonist U69,593; for KOR Calcium % U69, 593 Inhibition: antagonist screen, vs EC60 of U69,593
KOR, sequence (P41145 whole entry): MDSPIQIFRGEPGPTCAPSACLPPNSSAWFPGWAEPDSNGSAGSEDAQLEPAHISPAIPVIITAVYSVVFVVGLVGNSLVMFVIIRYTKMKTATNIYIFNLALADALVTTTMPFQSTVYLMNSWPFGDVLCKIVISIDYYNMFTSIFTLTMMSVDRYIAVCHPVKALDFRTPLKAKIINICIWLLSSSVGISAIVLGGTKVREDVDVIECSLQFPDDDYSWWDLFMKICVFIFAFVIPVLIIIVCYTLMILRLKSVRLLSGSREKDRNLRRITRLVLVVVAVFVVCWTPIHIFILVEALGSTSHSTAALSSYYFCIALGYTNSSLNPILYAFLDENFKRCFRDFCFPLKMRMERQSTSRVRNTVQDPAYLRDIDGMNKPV
Procedure: as §1

MOR = MOR (Homo sapiens, UniProt P35372); assay: MOR calcium mobilization agonist/antagonist screen (CHO-RD-HGA16 cells); set-up: host or cells: CHO-RD-HGA16; settings: single concentration; for Emax: CHO-RD-HGA16, agonist screen, control agonist DAMGO; for MOR Calcium % DAMGO Inhibition: antagonist screen, vs EC60 of DAMGO
MOR, sequence (P35372 whole entry): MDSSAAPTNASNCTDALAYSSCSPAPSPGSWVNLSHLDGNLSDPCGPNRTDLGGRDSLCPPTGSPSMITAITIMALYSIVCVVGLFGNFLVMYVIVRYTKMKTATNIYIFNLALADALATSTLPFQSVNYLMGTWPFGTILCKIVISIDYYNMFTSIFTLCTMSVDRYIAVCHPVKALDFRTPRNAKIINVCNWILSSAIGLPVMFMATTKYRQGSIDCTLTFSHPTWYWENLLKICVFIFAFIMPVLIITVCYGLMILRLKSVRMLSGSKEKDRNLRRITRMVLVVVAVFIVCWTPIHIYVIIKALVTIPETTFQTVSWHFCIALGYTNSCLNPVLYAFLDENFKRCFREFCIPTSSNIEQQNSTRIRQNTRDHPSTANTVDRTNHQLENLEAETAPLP
Procedure: as §1

human CXCR4 = target: T2, human CXCR4 (Homo sapiens, UniProt P61073); assay: CXCR4 β-arrestin recruitment assay (PathHunter); settings: human CXCR4-C2Cl2 cells, relative to CXCL-12
T2 construct: host or cells: C2C12
T2 sequence (P61073 whole entry): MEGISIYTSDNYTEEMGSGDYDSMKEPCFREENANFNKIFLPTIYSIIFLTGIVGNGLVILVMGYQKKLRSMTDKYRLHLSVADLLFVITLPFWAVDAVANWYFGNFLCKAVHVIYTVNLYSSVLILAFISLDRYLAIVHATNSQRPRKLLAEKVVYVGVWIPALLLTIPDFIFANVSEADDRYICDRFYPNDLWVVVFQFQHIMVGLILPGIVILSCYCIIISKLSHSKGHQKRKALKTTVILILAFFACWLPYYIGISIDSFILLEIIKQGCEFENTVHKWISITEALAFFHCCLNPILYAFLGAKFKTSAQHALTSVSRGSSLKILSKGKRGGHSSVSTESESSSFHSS
Procedure: (§2) Compounds were evaluated for agonist activity using a β-arrestin recruitment assay based on β-galactosidase complementation (PathHunter, DiscoverX). Stable human ACKR3-β-arrestin-2-CHO cells (DiscoverX) were plated into 96-well white-walled assay plates at 15,000 cells/well in Cell Plating Reagent 2 (DiscoveRx) and incubated at 37° C., 5% CO2 overnight. The next day, test compounds were prepared at 10× concentration in DPBS/1% DMSO and 10 μL was added to the cells. CXCL-12 was included as a positive agonist control. Following a 1.5 hr incubation at 37° C., 55 μL of detection reagent (prepared according to the manufacturer's specifications) was added to each well. The plate was incubated at room temperature for 1 hr, after which luminescence was measured at 1 sec/well using an EnSpire multimode plate reader (PerkinElmer). Relative luminescence units (RLU) were plotted against the log of compound concentration and data were fit to a three-parameter logistic curve to generate EC50 values (GraphPad Prism). EC50 and % Emax values are reported as means±SEM and are the result of at least two independent experiments performed in duplicate. The CXCR4 assay was run similarly except that human CXCR4-C2Cl2 cells (DiscoverX) were plated at 20,000 cells/well in Cell Plating Reagent 9. The next day, the media was removed and cells were incubated with Cell Plating Reagent 4 for 3 hrs, after which the assay was conducted as described above.

DOR = DOR (Homo sapiens, UniProt P41143); assay: DOR calcium mobilization agonist/antagonist screen (CHO-RD-HGA16 cells); set-up: host or cells: CHO-RD-HGA16; settings: single concentration; for Emax: CHO-RD-HGA16, agonist screen, control agonist DPDPE; for DOR Calcium % DPDPE Inhibition: antagonist screen, vs EC60 of DPDPE
DOR, sequence (P41143 whole entry): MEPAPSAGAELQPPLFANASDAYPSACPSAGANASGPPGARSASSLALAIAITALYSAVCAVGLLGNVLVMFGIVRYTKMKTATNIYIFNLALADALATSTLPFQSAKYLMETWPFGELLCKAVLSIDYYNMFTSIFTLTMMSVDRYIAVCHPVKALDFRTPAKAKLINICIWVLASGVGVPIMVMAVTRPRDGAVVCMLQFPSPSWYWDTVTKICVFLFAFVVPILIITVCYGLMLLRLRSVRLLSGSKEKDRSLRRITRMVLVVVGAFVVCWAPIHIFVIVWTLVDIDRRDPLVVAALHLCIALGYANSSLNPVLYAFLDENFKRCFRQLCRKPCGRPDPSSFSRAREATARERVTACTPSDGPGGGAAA
Procedure: as §1

ACKR3 = ACKR3 (Homo sapiens, UniProt P25106); assay: ACKR3 β-arrestin recruitment assay (PathHunter, β-galactosidase complementation); settings: for EC50: stable human ACKR3-β-arrestin-2-CHO cells, mean ± SEM, at least two independent experiments in duplicate; for Emax: read-out: ACKR3 β-arrestin % CXCL12 Emax ± SEM
ACKR3, sequence (P25106 whole entry): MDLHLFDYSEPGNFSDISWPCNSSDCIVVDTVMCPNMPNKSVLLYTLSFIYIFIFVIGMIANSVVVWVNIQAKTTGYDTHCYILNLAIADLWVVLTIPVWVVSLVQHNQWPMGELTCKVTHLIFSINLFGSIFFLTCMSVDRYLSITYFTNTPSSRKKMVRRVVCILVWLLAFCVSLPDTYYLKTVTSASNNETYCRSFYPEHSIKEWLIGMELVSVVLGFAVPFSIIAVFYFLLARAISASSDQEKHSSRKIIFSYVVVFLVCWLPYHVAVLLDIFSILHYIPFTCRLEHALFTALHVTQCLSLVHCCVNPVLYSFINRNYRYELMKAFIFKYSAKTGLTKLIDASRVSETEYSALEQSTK
Procedure: as §2

T1 sequence (O95180 whole entry): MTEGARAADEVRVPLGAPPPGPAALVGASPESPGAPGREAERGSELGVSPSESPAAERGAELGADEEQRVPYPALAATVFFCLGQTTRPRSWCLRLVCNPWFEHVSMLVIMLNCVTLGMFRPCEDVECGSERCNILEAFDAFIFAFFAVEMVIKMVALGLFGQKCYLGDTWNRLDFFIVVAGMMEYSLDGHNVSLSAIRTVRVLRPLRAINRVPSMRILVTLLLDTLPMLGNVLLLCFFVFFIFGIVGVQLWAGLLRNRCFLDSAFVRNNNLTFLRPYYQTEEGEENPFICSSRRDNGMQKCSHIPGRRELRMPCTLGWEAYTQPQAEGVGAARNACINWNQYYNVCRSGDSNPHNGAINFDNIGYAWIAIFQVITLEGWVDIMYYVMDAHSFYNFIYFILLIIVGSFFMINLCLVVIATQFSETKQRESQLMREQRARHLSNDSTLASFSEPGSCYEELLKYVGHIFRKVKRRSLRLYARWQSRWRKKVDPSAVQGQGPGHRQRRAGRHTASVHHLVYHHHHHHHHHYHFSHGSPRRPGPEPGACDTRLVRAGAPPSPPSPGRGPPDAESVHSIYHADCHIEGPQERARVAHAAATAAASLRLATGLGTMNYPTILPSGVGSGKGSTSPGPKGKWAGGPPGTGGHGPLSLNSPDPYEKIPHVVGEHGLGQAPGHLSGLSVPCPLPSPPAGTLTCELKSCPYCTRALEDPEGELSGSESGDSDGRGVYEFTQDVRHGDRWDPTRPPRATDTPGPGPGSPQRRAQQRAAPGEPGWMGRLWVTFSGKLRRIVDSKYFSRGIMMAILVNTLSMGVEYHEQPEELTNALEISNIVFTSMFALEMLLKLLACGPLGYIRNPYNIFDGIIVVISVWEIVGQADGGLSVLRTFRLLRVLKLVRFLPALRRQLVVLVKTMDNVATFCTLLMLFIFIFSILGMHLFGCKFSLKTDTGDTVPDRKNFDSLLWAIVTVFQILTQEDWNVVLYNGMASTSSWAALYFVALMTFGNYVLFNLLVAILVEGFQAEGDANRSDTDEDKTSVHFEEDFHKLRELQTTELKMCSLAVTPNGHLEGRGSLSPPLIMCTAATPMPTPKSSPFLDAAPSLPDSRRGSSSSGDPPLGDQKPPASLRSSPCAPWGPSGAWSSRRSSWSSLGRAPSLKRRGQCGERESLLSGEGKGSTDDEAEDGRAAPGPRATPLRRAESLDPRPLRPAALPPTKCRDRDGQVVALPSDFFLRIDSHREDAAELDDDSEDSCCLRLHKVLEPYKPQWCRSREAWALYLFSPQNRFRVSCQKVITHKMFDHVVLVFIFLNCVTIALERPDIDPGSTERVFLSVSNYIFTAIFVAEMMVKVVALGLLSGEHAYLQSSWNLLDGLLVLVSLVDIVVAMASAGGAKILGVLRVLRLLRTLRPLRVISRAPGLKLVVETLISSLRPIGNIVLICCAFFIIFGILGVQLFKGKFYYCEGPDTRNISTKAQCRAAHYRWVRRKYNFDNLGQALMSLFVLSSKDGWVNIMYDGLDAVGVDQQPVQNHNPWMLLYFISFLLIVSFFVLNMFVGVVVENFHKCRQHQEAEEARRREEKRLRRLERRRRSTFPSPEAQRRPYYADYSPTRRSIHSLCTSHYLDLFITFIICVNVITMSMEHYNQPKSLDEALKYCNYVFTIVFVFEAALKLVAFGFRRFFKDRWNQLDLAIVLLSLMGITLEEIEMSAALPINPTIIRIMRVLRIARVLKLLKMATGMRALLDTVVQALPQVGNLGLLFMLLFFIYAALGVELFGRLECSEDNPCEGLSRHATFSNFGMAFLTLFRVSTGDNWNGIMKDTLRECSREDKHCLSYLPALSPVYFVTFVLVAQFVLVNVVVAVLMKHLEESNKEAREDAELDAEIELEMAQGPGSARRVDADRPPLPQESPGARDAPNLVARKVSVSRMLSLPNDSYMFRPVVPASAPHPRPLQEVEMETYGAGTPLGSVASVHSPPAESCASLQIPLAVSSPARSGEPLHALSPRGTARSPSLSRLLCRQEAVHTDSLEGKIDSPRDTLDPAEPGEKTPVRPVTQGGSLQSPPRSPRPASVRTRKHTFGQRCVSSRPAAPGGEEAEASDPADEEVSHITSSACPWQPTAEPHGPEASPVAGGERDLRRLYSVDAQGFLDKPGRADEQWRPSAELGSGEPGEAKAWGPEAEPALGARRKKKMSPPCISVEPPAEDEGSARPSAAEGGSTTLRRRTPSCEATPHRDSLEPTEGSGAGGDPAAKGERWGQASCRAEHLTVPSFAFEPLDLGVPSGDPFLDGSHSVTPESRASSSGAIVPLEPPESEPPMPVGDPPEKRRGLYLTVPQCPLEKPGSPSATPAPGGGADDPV

| Compound | CaV 3.2 % CaCl2 Inhibition (CaV 3.2) | Emax (KOR) | KOR Calcium % U69, 593 Inhibition (KOR) | Emax (MOR) | MOR Calcium % DAMGO Inhibition (MOR) | CXCR4 β-arrestin % CXCL-12Emax (n = 2) (human CXCR4) | Emax (DOR) | DOR Calcium % DPDPE Inhibition (DOR) | EC50 (ACKR3) | Emax (ACKR3) |
| --- | --- | --- | --- | --- | --- | --- | --- | --- | --- | --- |
| C/C=C1/CN2CC[C@H]1C(=O)c1[nH]c3ccc(Cl)cc3c1C2 [WW-2, (4E,5R)-10-chloro-4-ethylidene-1,4,5,7-tetrahydro-2,5-ethanoazocino[4,3-b]indol-6(3H)-one] | 5% | 1% | 22% | 0% | 5% | 4% | 0% | 18% | > 10 µM | – |
| C/C=C1/CN2CC[C@H]1C(=O)c1[nH]c3cc(F)ccc3c1C2 [WW-3, (4E,5R)-4-ethylidene-9-fluoro-1,4,5,7-tetrahydro-2,5-ethanoazocino[4,3-b]indol-6(3H)-one] | 1% | 1% | 14% | 1% | 1% | 1% | 0% | 9% | > 10 µM | – |
| C/C=C1/CN2CC[C@H]1C(=O)c1[nH]c3ccc(F)cc3c1C2 [WW-4, (4E,5R)-10-fluoro-4-ethylidene-1,4,5,7-tetrahydro-2,5-ethanoazocino[4,3-b]indol-6(3H)-one] | 6% | 1% | 14% | 0% | 0% | 2% | 1% | 9% | > 10 µM | – |
| C/C=C1/CN2CC[C@H]1C(=O)c1[nH]c3ccc(OC)cc3c1C2 [WW-5, (4E,5R)-10-methoxy-4-ethylidene-1,4,5,7-tetrahydro-2,5-ethanoazocino[4,3-b]indol-6(3H)-one] | 9% | 20% | 17% | 1% | 13% | 7% | 2% | 22% | 8.15 ± 0.59 µM | 171 ± 6% |
| CCOC(=O)c1[nH]c2ccccc2c1CN1CCC(C(=O)OC)CC1 [WW-6, ethyl 3-{[4-(methoxycarbonyl)piperidin-1-yl]methyl}-1H-indole-2-carboxylate] | 19% | 0% | 22% | 0% | 11% | 7% | 0% | 1% | > 10 µM | – |
| C/C=C1/CN(Cc2ccc(OC)cc2)CC[C@H]1C(=O)c1cc2ccccc2[nH]1 [WW-7, (3E,4R)-(3-ethylidene-1-(4-methoxybenzyl)piperidin-4-yl)(1H-indol-2-yl)methanone] | 50% | 14% | 38% | 2% | 14% | 0% | 6% | 16% | 1.87 ± 0.096 µM | 139 ± 2% |
| C/C=C1/CNCC[C@H]1C(=O)c1cc2ccccc2[nH]1 [WW-8, (3E,4R)-(3-ethylidenepiperidin-4-yl)(1H-indol-2-yl)methanone] | −14% | 3% | 4% | 1% | 3% | 4% | 5% | 3% | > 10 µM | – |
| C/C=C1/CN(CCc2ccc(F)cc2)CC[C@H]1C(=O)c1cc2ccccc2[nH]1 [WW-9, [(3E,4R)-3-ethylidene-1-(4-fluorophenethyl)piperidin-4-yl](1H-indol-2-yl)methanone] | 45% | 1% | 23% | 0% | 34% | 10% | 0% | 31% | 2.07 ± 0.18 µM | 132 ± 6% |
